What was measured:
Influenza A virus = test: Antiviral activity against Influenza A virus H1N1 infected in dog MDCK cells assessed as inhibition in virus-induced cytopathic effect incubated for 40 hrs; format: functional, organism-based
[1] = Selectivity index, ratio of TC50 for cytotoxicity against dog MDCK cells to IC50 for antiviral activity against Influenza A virus H1N1 infected in dog MDCK cells; format: toxicity, cell-based; conditions: read-out: Selectivity Index
Influenza A virus H3N2 = test: Antiviral activity against Influenza A virus H3N2 infected in dog MDCK cells assessed as inhibition in virus-induced cytopathic effect incubated for 40 hrs; format: functional, organism-based
Influenza B virus = test: Antiviral activity against Influenza B virus infected in MDCK cells assessed as inhibition in virus-induced cytopathic effect incubated for 40 hrs; format: functional, organism-based
[2] = Cytotoxicity against MDCK cells assessed as reduction in cell viability incubated for 48 hrs; format: cell-based, Canis lupus familiaris; conditions: dog, read-out: TC50
[3] = Selectivity index, ratio of TC50 for cytotoxicity against dog MDCK cells to IC50 for antiviral activity against Influenza A virus H3N2 infected in dog MDCK cells; format: toxicity, cell-based; conditions: read-out: Selectivity Index
[4] = Selectivity index, ratio of TC50 for cytotoxicity against dog MDCK cells to IC50 for antiviral activity against Influenza B virus infected in dog MDCK cells; format: toxicity, cell-based; conditions: read-out: Selectivity Index

With `C=C(C(=O)OC)[C@@H]1CC[C@H](C)[C@@H]2CC(=O)C(C)=C2C1` as the compound, how does the IC50 (Influenza A virus) read?
Its IC50 is 72.7 µM.

And the selectivity ratio [1]?
The selectivity ratio was 3.

What about the IC50 (Influenza A virus H3N2) of the same compound?
The IC50 was over 71.8 µM.

What about the IC50 (Influenza B virus) of the same compound?
The IC50 was over 71.1 µM.

Which CC50 at 48 h [2] does the source give for `C=C(C(=O)NCc1ccc(B(O)O)cc1)[C@@H]1CC[C@H](C)[C@@H]2CC(=O)C(C)=C2C1` here?
Its CC50 at 48 h is 262 µM.

And the IC50 (Influenza A virus)?
Its IC50 is 85.4 µM.

What about the selectivity ratio [1] of the same compound?
Its selectivity ratio is 3.3.

What about the IC50 (Influenza A virus H3N2) of the same compound?
The IC50 was 65.9 µM.

What about the selectivity ratio [3] of the same compound?
Its selectivity ratio is 4.

What about the IC50 (Influenza B virus) of the same compound?
Its IC50 is 80 µM.

What about the selectivity ratio [4] of the same compound?
Its selectivity ratio is 3.3.

With `C=C(C(=O)Nc1ncc(B(O)O)cn1)[C@@H]1CC[C@H](C)[C@@H]2CC(=O)C(C)=C2C1` as the compound, how does the CC50 at 48 h [2] read?
Its CC50 at 48 h is 315 µM.

And the IC50 (Influenza A virus)?
Its IC50 is 96 µM.

What about the selectivity ratio [1] of the same compound?
Its selectivity ratio is 3.3.

What about the IC50 (Influenza A virus H3N2) of the same compound?
The IC50 was 87.4 µM.

And the selectivity ratio [3]?
Its selectivity ratio is 3.6.

What about the IC50 (Influenza B virus) of the same compound?
Its IC50 is 135 µM.

And the selectivity ratio [4]?
The selectivity ratio was 2.4.

What does the source list for `C=C(C(=O)Nc1ccc2c(c1)COB2O)[C@@H]1CC[C@H](C)[C@@H]2CC(=O)C(C)=C2C1`?
CC50 at 48 h [2]: 254 µM; IC50 (Influenza A virus): > 49.1 µM; IC50 (Influenza A virus H3N2): > 49.1 µM; IC50 (Influenza B virus): > 49.1 µM

For `C=C(C(=O)NCc1cccc(B(O)O)c1)[C@@H]1CC[C@H](C)[C@@H]2CC(=O)C(C)=C2C1`, which CC50 at 48 h [2] is on record?
The CC50 at 48 h was 252 µM.

What about the IC50 (Influenza A virus) of the same compound?
Its IC50 is 43.3 µM.

What about the selectivity ratio [1] of the same compound?
Its selectivity ratio is 6.

And the IC50 (Influenza A virus H3N2)?
Its IC50 is 63.5 µM.

What about the selectivity ratio [3] of the same compound?
The selectivity ratio was 4.

What about the IC50 (Influenza B virus) of the same compound?
Its IC50 is 90.3 µM.

And the selectivity ratio [4]?
Its selectivity ratio is 2.8.

Which CC50 at 48 h [2] does the source give for `C=C(C(=O)OC)[C@@H]1CC[C@H](C)[C@H]2C(=C(C)C(=O)[C@H]2NC(=O)C(C)CCl)C1` (some centres not stated) here?
Its CC50 at 48 h is 735 µM.

What about the IC50 (Influenza A virus) of the same compound?
Its IC50 is over 422 µM.

What about the IC50 (Influenza A virus H3N2) of the same compound?
The IC50 was 422 µM.

What about the selectivity ratio [3] of the same compound?
Its selectivity ratio is 1.7.

What about the IC50 (Influenza B virus) of the same compound?
The IC50 was over 422 µM.

With `C=C(C(=O)OC)[C@@H]1CC[C@H](C)[C@H]2C(=C(C)C(=O)[C@H]2NS(=O)(=O)c2ccc(F)cc2)C1` as the compound, how does the CC50 at 48 h [2] read?
The CC50 at 48 h was 25.1 µM.

And the IC50 (Influenza A virus)?
Its IC50 is 8.1 µM.

And the selectivity ratio [1]?
The selectivity ratio was 3.

What about the IC50 (Influenza A virus H3N2) of the same compound?
Its IC50 is 10.2 µM.

What about the selectivity ratio [3] of the same compound?
Its selectivity ratio is 2.5.

What about the IC50 (Influenza B virus) of the same compound?
The IC50 was 14.7 µM.

And the selectivity ratio [4]?
Its selectivity ratio is 1.7.

Which CC50 at 48 h [2] does the source give for `C=C(C(=O)OC)[C@@H]1CC[C@H](C)[C@H]2C(=C(C)C(=O)[C@H]2NS(C)(=O)=O)C1` here?
The CC50 at 48 h was 226 µM.

What about the IC50 (Influenza A virus) of the same compound?
The IC50 was 40.5 µM.

What about the selectivity ratio [1] of the same compound?
Its selectivity ratio is 5.6.

And the IC50 (Influenza A virus H3N2)?
The IC50 was 52.4 µM.

What about the selectivity ratio [3] of the same compound?
Its selectivity ratio is 4.3.

And the IC50 (Influenza B virus)?
The IC50 was 40.3 µM.

What about the selectivity ratio [4] of the same compound?
Its selectivity ratio is 5.6.

What does the source list for `C=C(C(=O)Nc1ccc(B(O)O)cc1)[C@@H]1CC[C@H](C)[C@@H]2CC(=O)C(C)=C2C1`?
CC50 at 48 h [2]: 939 µM; IC50 (Influenza A virus): > 452 µM; IC50 (Influenza A virus H3N2): > 452 µM; IC50 (Influenza B virus): > 451 µM

With `C=C(C(=O)Nc1cccc(B(O)O)c1)[C@@H]1CC[C@H](C)[C@@H]2CC(=O)C(C)=C2C1` as the compound, how does the CC50 at 48 h [2] read?
The CC50 at 48 h was 632 µM.

What about the IC50 (Influenza A virus) of the same compound?
The IC50 was 129 µM.

And the selectivity ratio [1]?
The selectivity ratio was 4.9.

And the IC50 (Influenza A virus H3N2)?
The IC50 was 146 µM.

What about the selectivity ratio [3] of the same compound?
The selectivity ratio was 5.3.

What about the IC50 (Influenza B virus) of the same compound?
Its IC50 is 147 µM.

What about the selectivity ratio [4] of the same compound?
The selectivity ratio was 4.3.

For `C=C(C(=O)OC)[C@@H]1CC[C@H](C)[C@H]2C(=C(C)C(=O)[C@H]2NC(=O)c2ccccc2)C1`, which CC50 at 48 h [2] is on record?
The CC50 at 48 h was 84.3 µM.

And the IC50 (Influenza A virus)?
Its IC50 is 38.4 µM.

And the selectivity ratio [1]?
Its selectivity ratio is 2.2.

And the IC50 (Influenza A virus H3N2)?
Its IC50 is over 16.5 µM.

And the IC50 (Influenza B virus)?
The IC50 was 43.8 µM.

What about the selectivity ratio [4] of the same compound?
Its selectivity ratio is 1.9.

Which CC50 at 48 h [2] does the source give for `C=C(C(=O)OC)[C@@H]1CC[C@H](C)[C@H]2C(=C(C)C(=O)[C@H]2NC(C)=O)C1` here?
Its CC50 at 48 h is 753 µM.

What about the IC50 (Influenza A virus) of the same compound?
Its IC50 is 174 µM.

What about the selectivity ratio [1] of the same compound?
Its selectivity ratio is 4.9.

What about the IC50 (Influenza A virus H3N2) of the same compound?
The IC50 was over 175 µM.

What about the IC50 (Influenza B virus) of the same compound?
Its IC50 is 522 µM.

And the selectivity ratio [4]?
Its selectivity ratio is 1.7.

For `C=C(C(=O)OC)[C@@H]1CC[C@H](C)[C@H]2C(=C(C)C(=O)[C@H]2NC(=O)CNC(=O)c2ccccc2)C1`, which CC50 at 48 h [2] is on record?
The CC50 at 48 h was 488 µM.

And the IC50 (Influenza A virus)?
The IC50 was 101 µM.

What about the selectivity ratio [1] of the same compound?
Its selectivity ratio is 4.9.

What about the IC50 (Influenza A virus H3N2) of the same compound?
Its IC50 is over 114 µM.

What about the IC50 (Influenza B virus) of the same compound?
Its IC50 is over 114 µM.

With `C=C(C(=O)OC)[C@@H]1CC[C@H](C)[C@H]2C(=C(C)C(=O)[C@H]2NC(=O)c2ccc(B(O)O)cc2)C1` as the compound, how does the CC50 at 48 h [2] read?
The CC50 at 48 h was 188 µM.

What about the IC50 (Influenza A virus) of the same compound?
The IC50 was 44.6 µM.

What about the selectivity ratio [1] of the same compound?
Its selectivity ratio is 4.3.

And the IC50 (Influenza A virus H3N2)?
The IC50 was over 44.5 µM.

What about the IC50 (Influenza B virus) of the same compound?
Its IC50 is over 44.2 µM.

For `C=C(C(=O)OC)[C@@H]1CC[C@H](C)[C@H]2C(=C(C)C(=O)[C@H]2NC(=O)CC#N)C1`, which CC50 at 48 h [2] is on record?
The CC50 at 48 h was 1450 µM.

And the IC50 (Influenza A virus)?
The IC50 was 485 µM.

What about the selectivity ratio [1] of the same compound?
The selectivity ratio was 3.

What about the IC50 (Influenza A virus H3N2) of the same compound?
Its IC50 is over 485 µM.

What about the IC50 (Influenza B virus) of the same compound?
The IC50 was 484 µM.

What about the selectivity ratio [4] of the same compound?
The selectivity ratio was 3.

Which CC50 at 48 h [2] does the source give for `C=C(C(=O)OC)[C@@H]1CC[C@H](C)[C@H]2C(=C(C)C(=O)[C@H]2NS(=O)(=O)c2ccc(C)cc2)C1` here?
The CC50 at 48 h was 61.1 µM.

And the IC50 (Influenza A virus)?
Its IC50 is 14.5 µM.

What about the selectivity ratio [1] of the same compound?
The selectivity ratio was 4.3.

What about the IC50 (Influenza A virus H3N2) of the same compound?
The IC50 was over 14.9 µM.

And the IC50 (Influenza B virus)?
Its IC50 is 14.1 µM.

And the selectivity ratio [4]?
The selectivity ratio was 4.3.

With `CCOC(=O)C1=C[C@@H](OC(CC)CC)[C@H](NC(C)=O)[C@@H](N)C1` [OSELTAMIVIR] as the compound, how does the CC50 at 48 h [2] read?
Its CC50 at 48 h is 1410 µM.

And the IC50 (Influenza A virus)?
Its IC50 is 15.6 µM.

What about the IC50 (Influenza A virus H3N2) of the same compound?
Its IC50 is 11.3 µM.

What about the selectivity ratio [3] of the same compound?
Its selectivity ratio is 132.

And the IC50 (Influenza B virus)?
Its IC50 is over 488 µM.

Which selectivity ratio [1] does the source give for `C=C(C(=O)O)[C@@H]1CC[C@H](C)[C@@H]2CC(=O)C(C)=C2C1` [PECHUELOIC ACID] here?
Its selectivity ratio is 4.3.

What about the selectivity ratio [3] of the same compound?
Its selectivity ratio is 4.3.

What about the selectivity ratio [4] of the same compound?
Its selectivity ratio is 10.

Which IC50 (Influenza A virus) does the source give for `NC(=O)c1ncn([C@@H]2O[C@H](CO)[C@@H](O)[C@H]2O)n1` [RIBAVIRIN] here?
Its IC50 is 8.5 µM.

What about the selectivity ratio [1] of the same compound?
Its selectivity ratio is 363.

And the IC50 (Influenza A virus H3N2)?
The IC50 was 10.6 µM.

What about the selectivity ratio [3] of the same compound?
Its selectivity ratio is 476.

What about the IC50 (Influenza B virus) of the same compound?
The IC50 was 8 µM.

What about the selectivity ratio [4] of the same compound?
Its selectivity ratio is 714.
